Assays:
[1] = species: Mus musculus; test: Toxic dose causing 50% treated mice fall from the rotarod was evaluated
[2] = target: T1, Sodium channel alpha subunits; brain (Types I, II, III) (Rattus norvegicus, UniProt P04775+P04774+P08104); test: Inhibition of [3H]batrachotoxin binding to rat brain sodium channel
[3] = target: Sigma non-opioid intracellular receptor 1 (Rattus norvegicus, UniProt Q9R0C9); test: Inhibition of [3H]pentazocine binding to Opioid receptor sigma 1
[4] = Protective index (PI) is the ratio of TD50 in the rotarod test over the ED50 in the anticonvulsant test.; assay type: functional
[5] = test system: Rattus norvegicus; test: Tested for the anticonvulsant activity administered 60 min orally before MES induction; assay type: functional; details: po, 1 h
[6] = target: T1, Sodium channel alpha subunits; brain (Types I, II, III); test: Inhibition of [3H]saxitoxin binding to rat brain sodium channel; assay type: tissue-based
[7] = Lethal dose in rats; assay type: toxicity; details: rat, in vivo

Sigma non-opioid intracellular receptor 1, sequence (Q9R0C9 whole entry): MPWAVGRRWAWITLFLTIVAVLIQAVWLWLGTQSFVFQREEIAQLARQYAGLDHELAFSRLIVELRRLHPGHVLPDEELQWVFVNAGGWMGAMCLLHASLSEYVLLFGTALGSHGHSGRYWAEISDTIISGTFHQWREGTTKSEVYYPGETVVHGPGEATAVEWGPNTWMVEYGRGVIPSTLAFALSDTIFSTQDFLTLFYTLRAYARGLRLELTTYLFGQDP

Structure (SMILES)	TD50 [1] [mg/kg]	IC50 [2] [µM]	IC50 [3] [µM]	PI [4]	ED50 [5] [mg/kg]	IC50 [6] [µM]	LD50 [7] [mg/kg]	IC50 ([2]; read-out: IC50) [µM]
C[C@H](NCc1ccc(NCc2cccc(F)c2)cc1)C(N)=O	583	13.9	0.0344	88.3	6.6	> 300	–	–
C[C@H](NCc1ccc(OCCCCc2ccccc2)cc1)C(N)=O	1000	1.1	0.55	81	12.4	> 300	–	–
C[C@@H](NCc1ccc(OCc2cccc(F)c2)cc1)C(N)=O	584	8.5	0.28	87.8	7.2	> 300	–	–
C[C@@H](NCc1ccc(NCc2cccc(F)c2)cc1)C(N)=O	272	11.3	0.28	160	1.7	> 300	–	–
C[C@H](NCc1ccc(OCc2ccccc2)cc1)C(=O)O	–	150.8	–	–	> 100	> 300	–	–
C[C@@H](NCc1ccc(OCCCc2ccccc2)cc1)C(N)=O	1280	7.8	0.28	102	12.6	> 300	–	–
COc1ccc(CN[C@@H](C)C(N)=O)cc1	–	145.8	> 10	–	> 100	> 300	–	–
COc1ccc2c(c1)[C@]13CCCC[C@@H]1[C@H](C2)N(C)CC3 [DEXTROMETHORPHAN]	–	1.3	–	–	12.9	> 100	234	–
C[C@H](NCc1ccc(OCCCc2ccccc2)cc1)C(N)=O	584	13.2	0.0193	87.2	6.7	> 300	–	–
Nc1nnc(-c2cccc(Cl)c2Cl)c(N)n1 [LAMOTRIGINE]	84	185.9	> 10	38.2	2.2	> 100	–	–
CNC(=O)[C@H](CO)NCc1ccc(OCc2cccc(F)c2)cc1	915	26.3	0.588	70.4	13	> 300	–	–
C[C@H](NCc1ccc(OCCCCCc2ccccc2)cc1)C(N)=O	1010	1.4	> 10	80.8	12.5	> 300	–	–
CS(=O)(=O)O.C[C@H](NCc1ccc(OCc2cccc(F)c2)cc1)C(N)=O [SAFINAMIDE MESYLATE]	626	–	0.0197	78.2	8	> 300	–	8.2
CNC(=O)[C@@H](CO)NCc1ccc(OCc2cccc(F)c2)cc1	593	17.9	6.6	92.6	6.4	> 300	–	–

From ChEMBL document CHEMBL1132100, “Sodium channel activity and sigma binding of 2-aminopropanamide anticonvulsants” (Bioorg Med Chem Lett, 1999)
